Reference: EP4810038A1, “METHOD FOR TREATING ALK-POSITIVE OR ROS1-POSITIVE NON-SMALL CELL LUNG CANCER” (Shenzhen TargetRx Co., Ltd., priority 2023, dated 2025)
Entries after “also recorded” stand apart in the source; their conditions may differ.

Experiment: Phase I clinical trial: safety and tolerability (TRAE, CNS-related AE, DLT, MTD, RP2D)
Assay type: in vivo
Excerpt: An adverse event will be described using MedDRA (Medical Dictionary for Regulatory Activities). Analysis of an adverse event will be based on a treatment emergent adverse event (TEAE). TEAE is defined as an adverse event that occur or worsen after a treatment/medication.
Subjects in all the dose groups received a single dose on day 1 (D1), and the blood samples were collected for pharmacokinetic (PK) assay and tolerability observation. […] The administration frequency for the subjects in the subsequent dose groups after entering the multiple-dose period was determined based on the obtained PK and tolerability data. In this trial, the administration frequency for all the subjects could be adjusted throughout the trial based on the continuously acquired safety and PK data. The four lower dose groups (5 mg, 10 mg, 20 mg and 40 mg) used an accelerated titration design, with one subject enrolled in each dose group. […] The 60 mg dose group and the subsequent dose groups followed a "3+3" dose escalation method, and the MTD was determined. […] During the dose escalation, if a dose group was confirmed to have a preliminary antitumor effect and manageable safety (e.g., no DLT occurred in 3 subjects or only 1 out of 6 subjects experienced DLT), the dose level could be expanded after a discussion and confirmation by the researcher and the sponsor.

[1] = 60mg dose group n=168, any level

[2H]C([2H])([2H])n1nc2c(c1C#N)-c1cnc(N)c(c1)O[C@H](C)c1cc(F)ccc1C(=O)N(C)C2 [compound A, (10R)-7-amino-12-fluoro-2-(methyl-d3)-10,16-dimethyl-15-oxo-10,15,16,17-tetrahydro-2H-8,4-(metheno)pyrazolo[4,3-h][2,5,11]benzoxadiazacyclotetradecine-3-carbonitrile]
Any TRAE [1]: 159 (94.6) number of cases (%) | TRAE Anemia [1]: 26 (15.5) number of cases (%) | TRAE Diarrhea [1]: 8 (8.2) number of cases (%) | TRAE Edema [1]: 45(22.7) number of cases (%) | TRAE Elevated alanine aminotransferase [1]: 14 (8.3) number of cases (%) | TRAE Elevated creatinine [1]: 11 (6.5) number of cases (%) | TRAE Hypercholesterolemia [1]: 131 (78.0) number of cases (%) | TRAE Hypertriglyceridemia [1]: 124 (73.8) number of cases (%) | TRAE Hyperuricemia [1]: 26 (15.5) number of cases (%) | TRAE Hypoproteinemia [1]: 10 (6.0) number of cases (%) | TRAE Increased AST [1]: 18 (10.7) number of cases (%) | TRAE Increased LDL cholesterol [1]: 45 (26.8) number of cases (%) | TRAE Increased creatine phosphokinase [1]: 9 (5.4) number of cases (%) | TRAE Increased glutamine transferase [1]: 9 (5.4) number of cases (%) | TRAE Increased lipase [1]: 12 (7.1) number of cases (%) | TRAE Peripheral neuropathy [1]: 34(20.2) number of cases (%) | TRAE Positive for occult blood in urine [1]: 13 (7.7) number of cases (%) | TRAE Proteinuria [1]: 7 (7.2) number of cases (%) | TRAE Weight gain [1]: 77 (45.8) number of cases (%) | Any TRAE (60mg dose group n=168, ≥3): 61 (36.3%) number of cases (%) | TRAE Anemia (60mg dose group n=168, ≥3): 4 (2.4) number of cases (%) | TRAE Diarrhea (60mg dose group n=168, ≥3): 0 number of cases (%) | TRAE Edema (60mg dose group n=168, ≥3): 2 (1.2) number of cases (%) | TRAE Elevated alanine aminotransferase (60mg dose group n=168, ≥3): 0 number of cases (%) | TRAE Elevated creatinine (60mg dose group n=168, ≥3): 0 number of cases (%) | TRAE Hypercholesterolemia (60mg dose group n=168, ≥3): 17 (10.1) number of cases (%) | TRAE Hypertriglyceridemia (60mg dose group n=168, ≥3): 31 (18.5) number of cases (%) | TRAE Hyperuricemia (60mg dose group n=168, ≥3): 4 (2.4) number of cases (%) | TRAE Hypoproteinemia (60mg dose group n=168, ≥3): 0 number of cases (%) | TRAE Increased AST (60mg dose group n=168, ≥3): 0 number of cases (%) | TRAE Increased LDL cholesterol (60mg dose group n=168, ≥3): 0 number of cases (%) | TRAE Increased creatine phosphokinase (60mg dose group n=168, ≥3): 0 number of cases (%) | TRAE Increased glutamine transferase (60mg dose group n=168, ≥3): 2 (1.2) number of cases (%) | TRAE Increased lipase (60mg dose group n=168, ≥3): 1 (0.6) number of cases (%) | TRAE Peripheral neuropathy (60mg dose group n=168, ≥3): 1 (0.6) number of cases (%) | TRAE Positive for occult blood in urine (60mg dose group n=168, ≥3): 0 number of cases (%) | TRAE Proteinuria (60mg dose group n=168, ≥3): 0 number of cases (%) | TRAE Weight gain (60mg dose group n=168, ≥3): 11 (6.5) number of cases (%) | dose interruption or dose reduction due to treatment-related CNS AEs (198 patients): no dose interruption or dose reduction was observed | most common TRAEs (198 patients): hypercholesterolemia, hypertriglyceridemia, or weight gain | patients with grade ≥ 3 treatment-related CNS AEs (198 patients): 1.0% | Any CNS-related AE (Any level): 18 (9.1) number of cases (%) | CNS-related AE: Anger (Any level): 1 (0.5) number of cases (%) | CNS-related AE: Cognitive impairment (Any level): 1 (0.5) number of cases (%) | CNS-related AE: Depression (Any level): 3 (1.5) number of cases (%) | CNS-related AE: Disorganized speech (Any level): 1 (0.5) number of cases (%) | CNS-related AE: Impact on cognition (Any level): 5 (2.5) number of cases (%) | CNS-related AE: Impact on emotion (Any level): 4 (2.0) number of cases (%) | CNS-related AE: Impact on language (Any level): 2 (1.0) number of cases (%) | CNS-related AE: Impact on sleep (Any level): 7 (4.5) number of cases (%) | CNS-related AE: Insomnia (Any level): 1 (0.5) number of cases (%) | CNS-related AE: Memory impairment (Any level): 3 (1.5) number of cases (%) | CNS-related AE: Mental disorder (Any level): 1 (0.5) number of cases (%) | CNS-related AE: Poor sleep quality (Any level): 6 (4.0) number of cases (%) | CNS-related AE: Speech disorder (Any level): 1 (0.5) number of cases (%) | Any TRAE (In total n=198, any level): 184 (92.9%) number of cases (%) | TRAE Anemia (In total n=198, any level): 27 (13.6) number of cases (%) | TRAE Diarrhea (In total n=198, any level): 13 (6.6) number of cases (%) | TRAE Edema (In total n=198, any level): 51(25.8) number of cases (%) | TRAE Elevated alanine aminotransferase (In total n=198, any level): 18 (9.1) number of cases (%) | TRAE Elevated creatinine (In total n=198, any level): 12 (6.1) number of cases (%) | TRAE Hypercholesterolemia (In total n=198, any level): 154 (77.8) number of cases (%) | TRAE Hypertriglyceridemia (In total n=198, any level): 147 (74.2) number of cases (%) | TRAE Hyperuricemia (In total n=198, any level): 27 (13.6) number of cases (%) | TRAE Hypoproteinemia (In total n=198, any level): 10 (5.1) number of cases (%) | TRAE Increased AST (In total n=198, any level): 20 (10.1) number of cases (%) | TRAE Increased LDL cholesterol (In total n=198, any level): 51 (25.8) number of cases (%) | TRAE Increased creatine phosphokinase (In total n=198, any level): 11 (5.6) number of cases (%) | TRAE Increased glutamine transferase (In total n=198, any level): 10 (5.1) number of cases (%) | TRAE Increased lipase (In total n=198, any level): 19 (9.6) number of cases (%) | TRAE Peripheral neuropathy (In total n=198, any level): 38(19.2) number of cases (%) | TRAE Positive for occult blood in urine (In total n=198, any level): 13 (6.6) number of cases (%) | TRAE Proteinuria (In total n=198, any level): 10 (5.1) number of cases (%) | TRAE Weight gain (In total n=198, any level): 91 (46.0) number of cases (%) | Any TRAE (In total n=198, ≥3): 73 (36.9%) number of cases (%) | TRAE Anemia (In total n=198, ≥3): 4 (2.0) number of cases (%) | TRAE Diarrhea (In total n=198, ≥3): 0 number of cases (%) | TRAE Edema (In total n=198, ≥3): 3(1.5) number of cases (%) | TRAE Elevated alanine aminotransferase (In total n=198, ≥3): 0 number of cases (%) | TRAE Elevated creatinine (In total n=198, ≥3): 0 number of cases (%) | TRAE Hypercholesterolemia (In total n=198, ≥3): 18 (9.1) number of cases (%) | TRAE Hypertriglyceridemia (In total n=198, ≥3): 38 (19.2) number of cases (%) | TRAE Hyperuricemia (In total n=198, ≥3): 4 (2.0) number of cases (%) | TRAE Hypoproteinemia (In total n=198, ≥3): 0 number of cases (%) | TRAE Increased AST (In total n=198, ≥3): 0 number of cases (%) | TRAE Increased LDL cholesterol (In total n=198, ≥3): 0 number of cases (%) | TRAE Increased creatine phosphokinase (In total n=198, ≥3): 0 number of cases (%) | TRAE Increased glutamine transferase (In total n=198, ≥3): 2 (1.0) number of cases (%) | TRAE Increased lipase (In total n=198, ≥3): 1 (0.5) number of cases (%) | TRAE Peripheral neuropathy (In total n=198, ≥3): 1(0.5) number of cases (%) | TRAE Positive for occult blood in urine (In total n=198, ≥3): 0 number of cases (%) | TRAE Proteinuria (In total n=198, ≥3): 0 number of cases (%) | TRAE Weight gain (In total n=198, ≥3): 14 (7.1) number of cases (%) | incidence of other AE, 60 mg dose group versus 80 mg dose group (dose escalation and dose expansion phases): significantly lower | dose-limiting toxicity (DLT) (dose escalation phase, 5 to 125 mg): No DLT was observed; also recorded: No dose-limiting toxicity was observed | MTD (dose escalation up to 125 mg): not reached | Any CNS-related AE (≥3): 2 (1.0) number of cases (%) | CNS-related AE: Anger (≥3): 0 number of cases (%) | CNS-related AE: Cognitive impairment (≥3): 0 number of cases (%) | CNS-related AE: Depression (≥3): 0 number of cases (%) | CNS-related AE: Disorganized speech (≥3): 0 number of cases (%) | CNS-related AE: Impact on cognition (≥3): 1 (0.5) number of cases (%) | CNS-related AE: Impact on language (≥3): 1 (0.5) number of cases (%) | CNS-related AE: Insomnia (≥3): 0 number of cases (%) | CNS-related AE: Memory impairment (≥3): 0 number of cases (%) | CNS-related AE: Mental disorder (≥3): 1 (0.5) number of cases (%) | CNS-related AE: Poor sleep quality (≥3): 0 number of cases (%) | CNS-related AE: Speech disorder (≥3): 1 (0.5) number of cases (%)
